# Source: article PMC7696255, “In-Silico Identified New Natural Sortase A Inhibitors Disrupt S. aureus Biofilm Formation” (International Journal of Molecular Sciences, 2020)
# Like-named read-outs stand apart in the source and are kept apart here.
# Key:
# [1] = molecular target: T1, S. aureus sortase A (Staphylococcus aureus, UniProt Q2FV99); assay: SrtA enzyme inhibition FRET assay, DABCYL-LPETG-EDANS substrate; format: biochemical
# T1 construct: purchased AnaSpec AS-72229
# Description: (§1) The enzymatic reactions were carried out in black, low-binding polystyrene 384 well plates (Greiner Bio-One). […] SrtA was pre-incubated in the reaction buffer with compounds for 1 h at room temperature prior to the addition of the FRET substrate. Assays were performed in 50 µL reactions with 50 ng of S. aureus sortase A and 25 µM of DABCYL-LPETG-EDANS substrate or 1 µM of 5-FAM/QXL^TM 520 substrate. The inhibitory activity of the compounds was determined by monitoring the rise in fluorescence intensity over 24 h at Ex/Em = 336 nm/490 nm for the DABCYL/EDANS substrate and Ex/Em = 490 nm/520 nm for the 5-FAM/QXL 520 substrate on a Tecan Infinite M1000 Pro reader.
# (§2) Raw fluorescence data were corrected for autofluorescence before computing percentage inhibition values. These percentage inhibition values were plotted against compound concentration using GraphPad Prism version 8.0 by nonlinear regression analysis using least squares fit method for IC50 determination. Testing was performed twice to ensure reproducibility of results.
# [2] = molecular target: T1, S. aureus sortase A; assay: SrtA enzyme inhibition FRET assay, 5-FAM/QXL 520 substrate; format: biochemical; details: Sortase A IC50, 5-FAM/QXL substrate; 10 min
# Description: as §1, §2
# [3] = system: S. aureus ATCC 25923; assay: S. aureus whole cell assay (MIC, microbroth dilution); format: cell-based, Staphylococcus aureus
# Description: (§3) Minimum inhibitory concentration (MIC) tests were performed according to procedures of the Clinical Laboratory Standards Institute (CLSI) with minor changes using the microbroth dilution technique in a 384-well setup. Inoculum of each S. aureus strain was prepared by suspending segregated colonies in sterile saline to a 0.5 McFarland standard. An inoculum of 2–8 × 10^5 CFU/mL was incubated with the compounds for 24 h at 37 °C. Gentamicin (data not shown) was incubated in the same manner as the test compounds and served as a positive control. The effect of the compounds on bacterial growth was calculated by quantifying the optical density at 600 nm on a microplate reader (Tecan, Infinite M1000, Salzburg, Austria). Dilutions of the inoculum were cultivated on agar to verify the validity of the inoculum seeding density and absence of contamination. All tests were executed in triplicate during two separate experiments.
# [4] = system: S. aureus ATCC 33591 (MRSA); assay: as above; format: cell-based, Staphylococcus aureus; details: 24 h
# Description: as §3
# [5] = system: S. aureus Newman; assay: as above; format: cell-based, Staphylococcus aureus; details: 24 h
# Description: as §3
# [6] = system: A549 cells; assay: Mammalian cell cytotoxicity assay (PrestoBlue); format: cell-based, human; details: read-out: Mammalian cell lines IC50
# Description: (§4) A549 and HepG2 cells were seeded at 1500 and 2500 cells per well, respectively, in 384-well microplates and incubated at 37 °C in the presence of 5% CO2. The next day, cells were treated with compounds then incubated for an additional 72 h. To assess the cytotoxic effect of the compounds PrestoBlue cell viability reagent (Life Technologies, Carlsbad, CA, USA) was used. After the 72 h incubation with compounds, the 384-well assay plates were incubated with this viability indicator dye for 2 h (A549) and 4 h (HepG2) before fluorescence reading at Ex/Em = 560 nm/590 nm on the Tecan Infinite M1000 Pro reader. Puromycin (data not shown) was used as the positive control against both cell lines. All tests were executed in triplicate on two separate experiments.
# [7] = system: HepG2 cells; assay: Mammalian cell cytotoxicity assay (PrestoBlue); format: cell-based, human; details: read-out: Mammalian cell lines IC50
# Description: as §4
# [8] = system: S. aureus ATCC 33591 (MRSA) biofilm formation; assay: Biofilm inhibitory assay (crystal violet), biofilm formation; format: cell-based, Staphylococcus aureus
# Description: (§5) The effectiveness of SrtA inhibitors in reducing biofilm formation and growth was assessed using the crystal violet (CV) biofilm assay with the following modifications. TSB with 2% glucose (TSB without glucose for E. coli) was inoculated with 10^5 CFU/mL of S. aureus and E. coli overnight cultures. A total of 90µl of this cell suspension was then dispensed into 96-well microtiter plates containing 10 µL of different concentrations of the SrtA inhibitors. After 24 h growth at 37 °C the plates were washed with PBS to remove unbound cells and heat fixed at 60 °C for 30 min. Next, the wells were stained with 0.1% crystal violet solution for 15 min at room temperature. At the completion of the incubation plates were washed 3 times with PBS and dried. Then the crystal violet dye from the biofilm was solubilized with 200 µL of DMSO. A total of 100 µL of this solution was then moved to a new microtiter plate for absorbance measurement at 595 nm. For pre-formed biofilm assay, the plates were prepared and incubated as mentioned earlier, without SrtA inhibitors. After 24 h incubation, the culture supernatant was removed gently and biofilm carefully washed with sterile PBS. Next, 10 µL of different concentrations of SrtA inhibitors with 90 µL of TSB with 2% glucose were added carefully into the wells and incubated at 37 °C for 24 h. The amount of crystal violet staining of biofilm was measured as described above. The results were reported as percent inhibition normalized to the wild type control. Two independent experiments were performed in triplicate to ensure reproducibility.
# [9] = system: S. aureus Newman biofilm formation; assay: as above; format: cell-based, Staphylococcus aureus; details: CV assay
# Description: as §5
# [10] = system: S. aureus ATCC 33591 (MRSA) pre-formed biofilms; assay: Biofilm inhibitory assay (crystal violet), pre-formed biofilms; format: cell-based, Staphylococcus aureus
# Description: as §5
# [11] = system: S. aureus Newman pre-formed biofilms; assay: as above; format: cell-based, Staphylococcus aureus; details: CV assay
# Description: as §5
# [12] = system: E. coli ATCC 25922 biofilm formation; assay: Biofilm inhibitory assay (crystal violet), biofilm formation; format: cell-based; details: in words; CV assay
# Description: as §5, with “Next, 10 µL of different concentrations of SrtA inhibitors with 90 µL of TSB with 2% glucose were added carefully into the wells and incubated at 37 °C for 24 h.” left out, “The results were reported as percent inhibition normalized to the wild type control. Two independent experiments were performed in triplicate to ensure reproducibility.” left out
# [13] = system: adherence of S. aureus Newman to fibrinogen; assay: Fibrinogen binding assay; format: cell-based, Staphylococcus aureus
# Description: Fibrinogen binding assay was completed as described but with slight revision. A flat-bottom 96-well plate was covered with fibrinogen protein by adding 50 µL of 20 µg/mL of fibrinogen protein from bovine plasma diluted in saline and incubated at 4 °C for 24 h. The coated plates were gently rinsed twice with PBS and blocked for 60 min with 4% bovine serum albumin (BSA). The plates were then washed 3 times with PBS. For this assay, S. aureus Newman strain was cultivated in TSB at 37 °C to exponential phase (OD600 = 0.5) and then the bacterial culture was incubated with various concentrations of test compound or control for 2.5 h. Then the cells were pelleted by centrifugation at 10,000× g for 10 min, the supernatants were removed and the cell pellets stored at −20 °C. The following day, cell pellets were suspended in PBS and dispersed in 100 μL aliquots to distinct wells of fibrinogen-coated 96-well plates. After 2 h of growth at 37 °C, the bacterial supernatant was discarded and the wells were rinsed gently with 150 µl PBS. Then the bacterial cells were fixed with 2% (v/v) glutaraldehyde and incubated for 30 min at 25 °C. After a wash with PBS, bound cells were stained with 0.1% crystal violet dye for 15 min. Plates were rinsed twice again with PBS, enclosed with aluminum foil, then stored at room temperature to dry overnight. On the next day absorbance was measured at 570 nm. The results were described as the percent of adhesion inhibition normalized to the wild type control. Two independent experiments were performed in triplicate to ensure reproducibility.
# T1 sequence (Q2FV99 whole entry): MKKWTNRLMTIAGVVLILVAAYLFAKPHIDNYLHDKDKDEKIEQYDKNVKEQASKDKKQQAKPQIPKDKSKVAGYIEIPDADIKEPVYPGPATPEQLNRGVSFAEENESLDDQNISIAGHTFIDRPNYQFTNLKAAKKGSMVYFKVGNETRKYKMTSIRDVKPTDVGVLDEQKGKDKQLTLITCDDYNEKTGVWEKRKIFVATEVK
smiles,measurement,setting,value
"CC(C)CCCc1c(O)ccc(C(=O)c2cc(Cl)c(Cl)[nH]2)c1O [Compound N2576, (4,5-dichloro-1H-pyrrol-2-yl)-[2,4-dihydroxy-3-(4-methyl-pentyl)-phenyl]-methanone]",IC50,"[1]; Sortase A IC50, DABCYL-LPETG-EDANS substrate, 4 h",47 ± 4.2 µM
same,IC50,"[1]; SrtA enzymatic activity IC50, text summary, Figure 2A,B, both substrates",< 50 µM
same,IC50,[2],32 ± 6.3 µM
same,S. aureus MIC,[3]; 24 h,5 to 8 µM
same,MIC,"[3]; Staphylococcus aureus, ATCC25923, 24 h",6.3 ± 0.1 µM
same,S. aureus MIC,[4],25 to 80 µM
same,MIC,[4]; Staphylococcus aureus,25.2 ± 5.5 µM
same,S. aureus MIC,[5]; Newman,5 to 8 µM
same,MIC,"[5]; Staphylococcus aureus, NEWMAN",5.8 ± 1.3 µM
same,IC50,[6]; 72 h,60 to 90 µM
same,IC50,"[6]; Homo sapiens, A549, 72 h",88.1 ± 13 µM
same,IC50,[7]; 72 h,60 to 90 µM
same,IC50,"[7]; Homo sapiens, HepG2, 72 h",65 ± 7.4 µM
same,concentration giving >90% inhibition on MRSA biofilm formation,[8]; CV assay,70 µM
same,IC50,"[8]; Staphylococcus aureus, S. aureus ATCC 33591 (MRSA), biofilm formation, read-out: Biofilm Inhibition IC50",24.8 µM
same,concentration giving >90% inhibition of biofilm formation,[9],4.4 µM
same,IC50,"[9]; Staphylococcus aureus, NEWMAN, biofilm formation, read-out: Biofilm Inhibition IC50",2.9 µM
same,concentration giving >90% inhibition on MRSA preformed biofilms,[10]; CV assay,280 µM
same,IC50,"[10]; Staphylococcus aureus, S. aureus ATCC 33591 (MRSA), pre-formed biofilms, read-out: Biofilm Inhibition IC50",> 200 µM
same,concentration giving >90% inhibition on preformed biofilms,[11],17 µM
same,IC50,"[11]; Staphylococcus aureus, pre-formed biofilms, read-out: Biofilm Inhibition IC50",10 µM
same,effect on E. coli ATCC 25922 biofilm formation,[12],did not show any effect
same,IC50,"[13]; Staphylococcus aureus, NEWMAN, read-out: Fibrinogen adherence Inhibition IC50",5.7 ± 0.8 µM
same,concentration giving ≥90% prevention of S. aureus Newman adherence to fibrinogen,[13]; compared to untreated wildtype strain,17 µM
